Results: PubChem BioAssay (NCI)
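Values below derive from 48-hour exposures of cells grown in 96-well plates, with endpoints linearly interpolated between the two concentrations bracketing the appropriate inhibition level. GI50 is the concentration that inhibits growth by half. TGI denotes the concentration required for complete inhibition of growth.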

Assays:
Test in all cases: inhibition of tumour cell growth, NCI panel, 48 h
[1] = test system: 786-0 renal
[2] = test system: A498 renal
[3] = test system: A549 NSCLC
[4] = test system: ACHN renal
[5] = test system: BT-549 breast
[6] = test system: CAKI-1 renal
[7] = test system: CCRF-CEM leukemia
[8] = test system: COLO 205 colon
[9] = test system: DU-145 prostate
[10] = test system: EKVX NSCLC
[11] = test system: HCC-2998 colon
[12] = test system: HCT-116 colon
[13] = test system: HCT-15 colon
[14] = test system: HL-60(TB) leukemia
[15] = test system: HOP-62 NSCLC
[16] = test system: HOP-92 NSCLC
[17] = test system: HS 578T breast
[18] = test system: HT29 colon
[19] = test system: IGROV1 ovarian
[20] = test system: K-562 leukemia
[21] = test system: KM12 colon
[22] = test system: LOX IMVI melanoma
[23] = test system: M14 melanoma
[24] = test system: MALME-3M melanoma
[25] = test system: MCF7 breast
[26] = test system: MDA-MB-231 breast
[27] = test system: MDA-MB-435
[28] = test system: MOLT-4 leukemia
[29] = test system: NCI-H226 lung
[30] = test system: NCI-H23 lung
[31] = test system: NCI-H460 lung
[32] = test system: NCI-H522 lung
[33] = test system: NCI/ADR-RES ovarian
[34] = test system: OVCAR-3 ovarian
[35] = test system: OVCAR-4 ovarian
[36] = test system: OVCAR-5 ovarian
[37] = test system: OVCAR-8 ovarian
[38] = test system: PC-3 prostate
[39] = test system: RPMI-8226 leukemia
[40] = test system: RXF 393 renal
[41] = test system: SF-268 CNS
[42] = test system: SF-295 CNS
[43] = test system: SF-539 CNS
[44] = test system: SK-MEL-2 melanoma
[45] = test system: SK-MEL-28 melanoma
[46] = test system: SK-MEL-5 melanoma
[47] = test system: SK-OV-3 ovarian
[48] = test system: SN12C renal
[49] = test system: SNB-19 CNS
[50] = test system: SNB-75 CNS
[51] = test system: SR leukemia
[52] = test system: SW-620 colon
[53] = test system: T-47D breast
[54] = test system: TK-10 renal
[55] = test system: U251 CNS
[56] = test system: UACC-257 melanoma
[57] = test system: UACC-62 melanoma
[58] = test system: UO-31 renal

SMILES: COc1cc(NC(=O)c2ccc(C(F)(F)F)nc2Nc2cc(Cl)ccc2C)cc(OC)c1OC
- GI50 [1]: 4.72 µM
- TGI [1]: 21.4 µM
- GI50 [2]: 4.14 µM
- TGI [2]: 18.2 µM
- GI50 [3]: 6 µM
- TGI [3]: 45.7 µM
- GI50 [4]: 5.13 µM
- TGI [4]: 34 µM
- GI50 [5]: 6.56 µM
- TGI [5]: 21.4 µM
- GI50 [6]: 4.88 µM
- TGI [6]: 41.8 µM
- GI50 [7]: 0.452 µM
- TGI [7]: 22 µM
- GI50 [8]: 7 µM
- TGI [8]: 20.6 µM
- GI50 [9]: 12.6 µM
- TGI [9]: 39.6 µM
- GI50 [10]: 4.54 µM
- TGI [10]: 37.6 µM
- GI50 [11]: 0.985 µM
- TGI [11]: 15 µM
- GI50 [12]: 2.93 µM
- TGI [12]: 14.1 µM
- GI50 [13]: 4.35 µM
- TGI [13]: 19 µM
- GI50 [14]: 0.194 µM
- TGI [14]: 7.8 µM
- GI50 [15]: 5.1 µM
- TGI [15]: 16.6 µM
- GI50 [16]: 0.801 µM
- TGI [16]: 11 µM
- GI50 [17]: 3.9 µM
- TGI [17]: 19.4 µM
- GI50 [18]: 8.12 µM
- TGI [18]: 22.9 µM
- GI50 [19]: 0.852 µM
- TGI [19]: 20.2 µM
- GI50 [20]: 1.77 µM
- TGI [20]: 25.9 µM
- GI50 [21]: 4.51 µM
- TGI [21]: 22 µM
- GI50 [22]: 7.06 µM
- TGI [22]: 20 µM
- GI50 [23]: 4.64 µM
- TGI [23]: 20.8 µM
- GI50 [24]: 9.84 µM
- TGI [24]: 47.7 µM
- GI50 [25]: 3.78 µM
- TGI [25]: 27.4 µM
- GI50 [26]: 2.94 µM
- TGI [26]: 14.3 µM
- GI50 [27]: 4.94 µM
- TGI [27]: 34.2 µM
- TGI [28]: 0.823 µM
- GI50 [29]: 11.2 µM
- TGI [29]: 32.8 µM
- GI50 [30]: 3.06 µM
- TGI [30]: 27.8 µM
- GI50 [31]: 6 µM
- TGI [31]: 21.3 µM
- GI50 [32]: 2.93 µM
- TGI [32]: 18.2 µM
- GI50 [33]: 5.91 µM
- TGI [33]: 48.3 µM
- GI50 [34]: 6.47 µM
- TGI [34]: 34.1 µM
- GI50 [35]: 3.16 µM
- TGI [35]: 43.5 µM
- GI50 [36]: 12.3 µM
- TGI [36]: 35.6 µM
- GI50 [37]: 10.8 µM
- TGI [37]: > 80.1 µM
- GI50 [38]: 1.89 µM
- TGI [38]: 12.2 µM
- GI50 [39]: 1.18 µM
- TGI [39]: 16.3 µM
- GI50 [40]: 6.52 µM
- TGI [40]: 27.9 µM
- GI50 [41]: 6.63 µM
- TGI [41]: 27.8 µM
- GI50 [42]: 5.66 µM
- TGI [42]: 24.4 µM
- GI50 [43]: 9.89 µM
- TGI [43]: 50.8 µM
- GI50 [44]: 8.16 µM
- TGI [44]: 28.6 µM
- GI50 [45]: 8.74 µM
- TGI [45]: 27 µM
- GI50 [46]: 1.75 µM
- TGI [46]: 12.3 µM
- GI50 [47]: 7.69 µM
- TGI [47]: 29.6 µM
- GI50 [48]: 7.76 µM
- TGI [48]: 24.2 µM
- GI50 [49]: 10.4 µM
- TGI [49]: 30.5 µM
- GI50 [50]: 3.07 µM
- TGI [50]: 24.4 µM
- GI50 [51]: 0.215 µM
- TGI [51]: 1.57 µM
- GI50 [52]: 6.49 µM
- TGI [52]: 21.6 µM
- GI50 [53]: 3.99 µM
- TGI [53]: 27.1 µM
- GI50 [54]: 15.8 µM
- TGI [54]: > 67.9 µM
- GI50 [55]: 4.27 µM
- TGI [55]: 16.9 µM
- GI50 [56]: 4.55 µM
- TGI [56]: 19.7 µM
- GI50 [57]: 2.53 µM
- TGI [57]: 17 µM
- GI50 [58]: 3.48 µM
- TGI [58]: 16 µM
